Reference: patent US4690930A, “Pyrazolo[4,3-c]quinoline-3-one and imidazo[4,3-c]cinnolin-3-one derivatives and their use as psychotropic agents” (Shionogi & Co., Ltd, priority 1984, dated 1987)

target: benzodiazepine receptor; test: Binding test to benzodiazepine receptor (inhibition of specific binding of tritium labeled diazepam); design: species or system Wistar rats (cerebral cortex); conditions: 2 nM tritium labeled diazepam, rat cerebral cortex, 0° C., 60 minutes; Ki calculated from IC50
Method: Binding test to benzodiazepine receptor
This test was carried out in the modified method of Moeler & Okada, Science, 198, 849-851 (1977).
Receptor preparation was provided from the cerebral cortex of Wistar rats (male, 11 to 13 weeks age). Inhibitory action of the test compound on the specific binding of tritium labeled diazepam to the receptor was evaluated as follows. 2 nM tritium labeled diazepam and an aqueous solution of the test compound at 5 or 6 concentrations were incubated with the receptor preparation at 0° C. for 60 minutes. The 50% inhibitory concentration (IC50) was measured by the concentration-response curve.
The inhibitory constant (Ki) was calculated according to the following equation, in which Kd is the dissociation constant of the tritium labeled diazepam and L is the concentration of the labeled ligand. [formula]

Going from `Cc1ccc(-n2nc3c4ccccc4[nH]cc-3c2=O)s1` [Ic1 -1, 2-[2-(5-Methylthienyl)]-2,5-dihydro-3H-pyrazolo[4,3-c]quinolin-3-one] to `CCc1ccc(-n2nc3c4ccccc4[nH]cc-3c2=O)s1` [Ic1 -2], the Ki rises from 0.35 nM to 1.51 nM (4.3-fold). The first binds more tightly here.

Compared with `Cc1cc(-n2nc3c4ccccc4[nH]cc-3c2=O)sc1C` [Ic1 -3], `Cc1csc(-n2nc3c4ccccc4[nH]cc-3c2=O)c1` [Ic1 -12] is 1.7-fold lower in Ki: 0.63 nM for the first, 0.38 nM for the second. The second binds more tightly here.

Going from `CCCCc1ccc(-n2nc3c4ccccc4[nH]cc-3c2=O)s1` [Ic1 -5] to `Cc1cc(-n2nc3c4ccccc4[nH]cc-3c2=O)cs1` [Ic2 -2, 2-[3-(5-methylthienyl)]-2,5-dihydro-3H-pyrazolo[4,3-c]quinolin-3-one], the Ki falls from 1.53 nM to 0.45 nM (3.4-fold).

Compared with `Cc1ccc2[nH]cc3c(=O)n(-c4ccc(C)s4)nc-3c2c1` [Ic1 -6], `Cc1ccc2c3nn(-c4ccc(C)s4)c(=O)c-3c[nH]c2c1` [Ic1 -10] is 6.5-fold higher in Ki: 0.22 nM for the first, 1.44 nM for the second.

Compared with `COc1ccc2[nH]cc3c(=O)n(-c4ccc(C)s4)nc-3c2c1` [Ic1 -7], `Cc1ccc(-n2nc3c4cc(Cl)ccc4[nH]cc-3c2=O)s1` [Ic1 -8] is 1.8-fold higher in Ki: 0.17 nM for the first, 0.31 nM for the second. The first binds more tightly here.

Going from `Cc1ccc(-n2nc3c4cc(F)ccc4[nH]cc-3c2=O)s1` [Ic1 -9] to `Cc1ccc(-n2nc3c4ccc(Cl)cc4[nH]cc-3c2=O)s1` [Ic1 -11], the Ki rises from 0.14 nM to 1.11 nM (7.9-fold). The first binds more tightly here.

`O=c1c2c[nH]c3ccccc3c-2nn1-c1ccsc1` [Ic2 -1, 2-(3-Thienyl)-2,5-dihydro-3H-pyrazolo[4,3-c]quinolin-3-one] and `Cc1ccc2[nH]cc3c(=O)n(-c4csc(C)c4)nc-3c2c1` [Ic2 -4] are within 1.5-fold of each other in Ki: 0.29 nM for the first, 0.3 nM for the second.

`COc1ccc2[nH]cc3c(=O)n(-c4csc(C)c4)nc-3c2c1` [Ic2 -5, 2-[3-(5-methylthienyl)]-8-methoxy-2,5-dihydro-3H-pyrazolo[4,3-c]quinolin-3-one] and `Cc1cc(-n2nc3c4cc(Cl)ccc4[nH]cc-3c2=O)cs1` [Ic2 -6] are within 1.5-fold of each other in Ki: 0.39 nM for the first, 0.58 nM for the second.

Going from `Cc1cc(-n2nc3c4cc(F)ccc4[nH]cc-3c2=O)cs1` [Ic2 -7] to `Cc1ccc2c3nn(-c4csc(C)c4)c(=O)c-3c[nH]c2c1` [Ic2 -8], the Ki rises from 0.17 nM to 1.24 nM (7.3-fold).

In the case of `Cc1cc(-n2nc3c4ccc(Cl)cc4[nH]cc-3c2=O)cs1` [Ic2 -9], the Ki is reported as 0.96 nM.

test system: male mice; test: Inverse agonist activity (oral compound 1 hour before subcutaneous pentylenetetrazol, mice); assay type: in vivo; conditions: Mus musculus, 1 hour before s.c. 75 mg/kg pentylenetetrazol (subconvulsive dose), 8-16 male mice a group, Probit method, read-out: ED50 (dose at which 50% of mice died)
Method: Inverse agonist activity was evaluated by the following procedure.
The test compound was administered orally to 8-16 male mice a group, 1 hour before a subcutaneous administration of 75 mg/kg of pentylenetetrazol (a subconvulsive dose). The dose (ED50) at which 50% of mice died, was calculated by the Probit method.

First: O=c1c2c[nH]c3ccccc3c-2nn1-c1nccs1 [Control 2, reference compound]
Second: Cc1cc(-n2nc3c4ccccc4[nH]cc-3c2=O)cs1 [Ic2 -2, 2-[3-(5-methylthienyl)]-2,5-dihydro-3H-pyrazolo[4,3-c]quinolin-3-one]
The ED50 of the first is 52-fold higher: 87 mg/kg for the first, 1.67 mg/kg for the second.
